Results on three compounds are retold here after US20230301298A1, “Biocide Compositions” (BASF SE, priority 2020, published 2023).

SMILES strings stand for the structures. Several values for one entry are separate records, joined by “and”; a condition that tells them apart may be missing. Equal values may be shown once. A value given as a limit tells only on which side of the number the result lay.

Data set [1] in a line: Solubility of biocide in two-component solvent system (A1:A2). Format: physicochemical. The method, then:
Component (A1) and component (A2) were mixed and heated to a temperature in the range of 20° C. to 100° C. to obtain a solution. Respective amount of the biocide was charged to the above solution at a temperature in the range of 20° C. to 100° C. to obtain the solution containing biocide. Emulsifier and other optional ingredients were charged o to the above biocide containing solution to obtain the emulsifiable composition (C).

Data set [2] in a line: Solubility of azoxystrobin in three components solvent system. Format: physicochemical. The method, then: Component (A1) and component (A2) were mixed and heated to a temperature in the range of 20° C. to 100° C. to obtain a solution. Respective amount of the biocide was charged to the above solution at a temperature in the range of 20° C. to 100° C. to obtain the solution containing biocide. Emulsifier and other optional ingredients were charged o to the above biocide containing solution to obtain the emulsifiable composition (C). It is evident from table 1 to 5 that the biocides can be solubilised in a combination of at least one component (A1) and at least one component (A2) and which can be further formulated to stable emulsion concentrate. It can be inferred from table 4 that the tebuconazole can be formulated to an emulsifiable concentrate compared to suspension concentrate or emulsion concentrate in aromatic solvent system. Further, table 5 discloses that a three components solvent system also aids in solubilizing the biocides or adding water to two-components solvent system can improve the solubility of the biocide(s).

Setting [3] is: solvent system 2-phenylethanol : Formic acid, molar ratio 1:2.
[4] abbreviates: solvent system 2-phenylethanol : Formic acid, molar ratio 2:1.
The mark [5] stands for this setting: solvent system 2-phenylethanol : Methyl salicylate, molar ratio 1:1.
The mark [6] stands for this setting: solvent system 2-phenylethanol : Methyl salicylate, molar ratio 2:1.
Where [7] appears, read: solvent system 4-methylcyclohexanol : Methyl salicylate, molar ratio 1:2.
Where [8] appears, read: solvent system Cyclohexanol : D,L-Lactic acid, molar ratio 1:1.
Where [9] appears, read: solvent system Thymol : Phenyl acetic acid, molar ratio 2:1.
The mark [10] stands for this setting: solvent system formic acid : Methyl salicylate, molar ratio 2:1.

With `CO/C=C(/C(=O)OC)c1ccccc1Oc1cc(Oc2ccccc2C#N)ncn1` [Azoxystrobin], the “Solubility wt. % in total (C)” value in data set [1] (solvent system 2-phenoxyethanol : D,L-Lactic acid, molar ratio 1:1) is 36 wt. %; in data set [1] (solvent system 2-phenoxyethanol : D,L-lactic acid, molar ratio 1:2), 20 wt. %; in data set [1] (solvent system 2-phenoxyethanol : Methyl salicylate, molar ratio 1:1) it was 19 wt. %; in data set [1] (solvent system 2-phenoxyethanol : Veratrole, molar ratio 2:1), 23 wt. %; in data set [1] (solvent system 2-phenylethanol : D,L-Lactic acid, molar ratio 1:1), 25 wt. %; in data set [1] (solvent system 2-phenylethanol : D,L-Lactic acid, molar ratio 2:1), 22 wt. %. Moreover, the “Solubility wt. % in total (C)” value in data set [1] (setting [3]) is 20 wt. %; in data set [1] (setting [4]) it was 20 wt. %; in data set [1] (setting [5]) it was 27 wt. %; in data set [1] (solvent system 2-phenylethanol : Methyl salicylate, molar ratio 1:2), 25 wt. % and 24 wt. %; in data set [1] (setting [6]) it was 27 wt. % and 23 wt. %; in data set [1] (solvent system 2-phenylethanol : Phenyl acetic acid, molar ratio 2:1) it was 25 wt. %. Besides, the “Solubility wt. % in total (C)” value is 24 wt. % in data set [1] (solvent system 4-isopropylbenzylalcohol : Phenyl acetic acid, molar ratio 2:1); 24 wt. % in data set [1] (solvent system 4-methylcyclohexanol : Hydroxy pivalic acid, molar ratio 2:1); 20 wt. % in data set [1] (setting [7]); less than 49 wt. % in data set [1] (solvent system Carvacrol : 2-ethylphenol, molar ratio 1:2); 20 wt. % in data set [1] (setting [8]); 20 wt. % in data set [1] (solvent system Cyclohexanol : D,L-Lactic acid, molar ratio 1:2). The “Solubility wt. % in total (C)” value came to 21 wt. % in data set [1] (solvent system Cyclohexanol : Hydroxy pivalic acid, molar ratio 2:1); 32 wt. % in data set [1] (solvent system D,L-Lactic acid : 1,2-dimethoxy benzene, molar ratio 2:1); 23 wt. % in data set [1] (solvent system D,L-Lactic acid : 2-phenoxyethanol, molar ratio 1:1); 22 wt. % in data set [1] (solvent system D,L-Lactic acid : 4-acetylanisole, molar ratio 2:1); 33 wt. % in data set [1] (solvent system D,L-Lactic acid : 4-isopropylbenzyl alcohol, molar ratio 2:1); 24 wt. % in data set [1] (solvent system D,L-Lactic acid : Veratrole, molar ratio 2:1). Also, the “Solubility wt. % in total (C)” value in data set [1] (solvent system Formic acid : 1,2-dimethoxy benzene, molar ratio 2:1) was 49 wt. %; in data set [1] (solvent system Thymol : (L)-menthol, molar ratio 1:1), 28 wt. %; in data set [1] (setting [9]), 60 wt. %; in data set [1] (solvent system formic acid : Methyl salicylate, molar ratio 1:2) it was 27 wt. %; in data set [1] (setting [10]), 40 wt. %. Besides, the “Solubility of Azoxystrobin wt. % in total (C)” value worked out at 24 wt. % in data set [2] (2-Phenoxyethanol:Methyl Salicylate:Water (tap), molar ratio 1:1:0.5); 29 wt. % in data set [2] (2-Phenoxyethanol:Methyl salicylate:D,L-Lactic acid, molar ratio 1:1:2); 21 wt. % in data set [2] (2-Phenoxyethanol:Veratrole:D,L-Lactic acid, molar ratio 1:1:2); 25 wt. % in data set [2] (2-Phenoxyethanol:Veratrole:Water (tap), molar ratio 1:2:0.5); 25 wt. % in data set [2] (2-Phenylethanol:Methyl Salicylate:Water (tap), molar ratio 1:1:0.5); 25 wt. % in data set [2] (2-Phenylethanol:phenyl acetic acid:Water (tap), molar ratio 2:1:0.5).
As for `CS(=O)(=O)c1ccc(C(=O)C2C(=O)CCCC2=O)c([N+](=O)[O-])c1` [Mesotrione], the “Solubility wt. % in total (C)” value in data set [1] (setting [9]) came to 20 wt. %.
Consider `CC(C)(C)C(O)(CCc1ccc(Cl)cc1)Cn1cncn1` (stereo not shown) [Tebuconazole], for which the “Solubility wt. % in total (C)” value in data set [1] (solvent system 2-phenylethanol : Formic acid, molar ratio 1:1) is 40 wt. %; in data set [1] (setting [3]) it was 40 wt. %; in data set [1] (setting [4]), 35 wt. %; in data set [1] (setting [5]), 38 wt. %; in data set [1] (setting [6]), 42 wt. %; in data set [1] (setting [7]), 35 wt. %. The “Solubility wt. % in total (C)” value is 47 wt. % in data set [1] (setting [8]); 38 wt. % in data set [1] (solvent system Cyclohexanol : Methyl salicylate, molar ratio 1:2); 36 wt. % in data set [1] (setting [9]); 50 wt. % in data set [1] (setting [10]).
